Data: ChEMBL document CHEMBL4665729, “The SARS-CoV-2 main protease as drug target” (Bioorg Med Chem Lett, 2020)

Legend:
[1] = tested on: Severe acute respiratory syndrome coronavirus 2; experiment: Inhibition of SARS-CoV-2 main protease expressed in expressed in BL21(DE3) Escherichia Coli […] by measuring ratio of K2/Ki by FRET assay
[2] = Inhibition of SARS-CoV-2 main protease expressed in expressed in BL21(DE3) Escherichia Coli […] by FRET assay; design: species or system Severe acute respiratory syndrome coronavirus 2

Compound | Ratio [1] | EC50 [2] | Ki [2]
CC(C)C[C@H](NC(=O)OCc1ccccc1)C(=O)N[C@@H](CC1CCNC1=O)C(O)S(=O)(=O)O (stereo partly drawn) | 40800 M⁻¹ s⁻¹ |  | 
CC(C)(C)NC(=O)N[C@H](C(=O)N1C[C@H]2[C@@H]([C@H]1C(=O)NC(CC1CCC1)C(=O)C(N)=O)C2(C)C)C(C)(C)C (stereo partly drawn) [BOCEPREVIR] |  | 1310 nM | 1180 nM
